Values belong to the compound of their own block, whether it stands above or below them. Activity calls are given as the source filed them.
Key:
[1] = C. albicans growth with fluconazole, confirmation, fluorescence, retest (AID 2467); type: functional, cell-based
[2] = target: Multidrug resistance protein CDR2 (Candida albicans (strain SC5314 / ATCC MYA-2876) (Yeast), UniProt P78595); test: CaCDR2 efflux pump inhibitors in yeast, dose response, S. cerevisiae AD1-8u, singleplex, Cherry Pick1 hits (AID 588604); type: functional
Sequence of Multidrug resistance protein CDR2 (P78595 whole entry): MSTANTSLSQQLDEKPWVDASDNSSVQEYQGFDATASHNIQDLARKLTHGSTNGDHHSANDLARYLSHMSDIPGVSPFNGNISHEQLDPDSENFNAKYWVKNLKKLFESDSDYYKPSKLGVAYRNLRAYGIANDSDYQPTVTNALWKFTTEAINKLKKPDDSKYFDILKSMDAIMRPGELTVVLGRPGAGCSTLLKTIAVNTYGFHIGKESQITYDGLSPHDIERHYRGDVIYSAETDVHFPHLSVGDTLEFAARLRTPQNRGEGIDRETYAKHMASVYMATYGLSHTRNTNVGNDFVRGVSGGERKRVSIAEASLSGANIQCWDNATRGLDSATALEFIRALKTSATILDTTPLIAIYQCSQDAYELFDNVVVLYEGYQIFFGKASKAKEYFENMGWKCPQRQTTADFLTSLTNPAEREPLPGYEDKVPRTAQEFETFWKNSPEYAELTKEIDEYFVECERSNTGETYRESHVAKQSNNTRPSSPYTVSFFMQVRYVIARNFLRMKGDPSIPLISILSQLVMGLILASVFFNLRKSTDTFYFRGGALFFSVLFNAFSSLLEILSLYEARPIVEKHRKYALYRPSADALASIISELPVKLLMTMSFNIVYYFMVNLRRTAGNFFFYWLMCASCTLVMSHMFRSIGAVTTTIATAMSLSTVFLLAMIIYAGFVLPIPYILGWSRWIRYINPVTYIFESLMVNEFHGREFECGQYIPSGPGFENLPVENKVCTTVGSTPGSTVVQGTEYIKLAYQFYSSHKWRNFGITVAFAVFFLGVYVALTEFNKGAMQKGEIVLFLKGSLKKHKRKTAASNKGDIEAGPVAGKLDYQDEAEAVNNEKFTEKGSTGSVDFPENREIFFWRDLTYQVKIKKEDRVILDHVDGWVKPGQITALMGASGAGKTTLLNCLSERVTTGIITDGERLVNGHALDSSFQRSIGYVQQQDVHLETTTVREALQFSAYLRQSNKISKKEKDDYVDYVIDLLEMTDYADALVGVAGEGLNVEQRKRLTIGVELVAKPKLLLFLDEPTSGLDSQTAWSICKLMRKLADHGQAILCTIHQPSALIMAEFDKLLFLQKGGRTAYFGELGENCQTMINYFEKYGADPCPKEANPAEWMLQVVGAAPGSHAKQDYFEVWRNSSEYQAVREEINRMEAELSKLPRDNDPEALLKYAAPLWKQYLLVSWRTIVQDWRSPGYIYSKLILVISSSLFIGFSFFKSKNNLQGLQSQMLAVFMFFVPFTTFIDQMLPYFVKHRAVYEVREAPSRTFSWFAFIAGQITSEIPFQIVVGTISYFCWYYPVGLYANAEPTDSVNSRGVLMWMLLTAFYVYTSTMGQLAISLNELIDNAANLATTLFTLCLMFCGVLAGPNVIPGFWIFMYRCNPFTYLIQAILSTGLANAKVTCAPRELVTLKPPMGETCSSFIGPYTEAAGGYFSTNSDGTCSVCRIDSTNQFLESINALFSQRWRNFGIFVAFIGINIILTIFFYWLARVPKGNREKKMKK

[3] = target: T1, DNA repair protein RAD52 homolog (Homo sapiens, UniProt P43351); type: functional, biochemical
T1 sequence (P43351 whole entry): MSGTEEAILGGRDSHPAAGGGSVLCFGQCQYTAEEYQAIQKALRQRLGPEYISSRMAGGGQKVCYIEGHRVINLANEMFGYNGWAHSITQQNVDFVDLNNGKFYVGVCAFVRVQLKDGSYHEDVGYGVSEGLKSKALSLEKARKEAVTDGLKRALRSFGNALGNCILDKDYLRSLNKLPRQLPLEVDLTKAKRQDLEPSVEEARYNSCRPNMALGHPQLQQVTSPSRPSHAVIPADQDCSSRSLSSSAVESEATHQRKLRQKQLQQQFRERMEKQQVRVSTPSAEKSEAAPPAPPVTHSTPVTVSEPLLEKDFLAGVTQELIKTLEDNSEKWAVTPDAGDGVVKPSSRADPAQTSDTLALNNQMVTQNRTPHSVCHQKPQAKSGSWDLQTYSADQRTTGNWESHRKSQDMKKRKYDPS

[4] = NIH-3T3 fibroblast cytotoxicity, dose response, cytotoxicity control, cell-based, fluorescence, Alamar Blue, secondary assay (AID 2327); type: functional;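 further: NIH-3T3 mouse fibroblasts cultured with fluconazole at 8 µg/mL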
[5] = target: T2, High affinity choline transporter 1 (Homo sapiens, UniProt Q9GZV3); test: CHT inhibitors, dose response, cell-based, 10-point CRC, membrane potential dye (AID 588401); type: functional;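 further: membrane potential dye fluorescence of choline-evoked depolarization via CHT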
T2 sequence (Q9GZV3 whole entry): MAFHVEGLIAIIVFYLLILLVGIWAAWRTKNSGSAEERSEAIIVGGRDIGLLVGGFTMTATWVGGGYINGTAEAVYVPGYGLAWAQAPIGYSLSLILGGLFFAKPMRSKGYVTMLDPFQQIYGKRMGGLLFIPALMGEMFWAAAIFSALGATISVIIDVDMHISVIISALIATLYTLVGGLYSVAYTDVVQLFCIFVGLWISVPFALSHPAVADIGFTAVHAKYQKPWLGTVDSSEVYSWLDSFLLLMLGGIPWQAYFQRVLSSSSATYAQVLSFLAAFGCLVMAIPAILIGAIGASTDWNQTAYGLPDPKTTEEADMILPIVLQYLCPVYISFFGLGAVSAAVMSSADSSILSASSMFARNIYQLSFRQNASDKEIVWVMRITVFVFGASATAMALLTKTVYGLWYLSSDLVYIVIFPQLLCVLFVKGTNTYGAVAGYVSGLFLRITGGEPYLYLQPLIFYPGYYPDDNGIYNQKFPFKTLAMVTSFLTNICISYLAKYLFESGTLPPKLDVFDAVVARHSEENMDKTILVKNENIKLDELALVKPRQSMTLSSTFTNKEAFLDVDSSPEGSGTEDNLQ

[6] = target: T2, High affinity choline transporter 1; test: CHT inhibitors, dose response, cell-based, 5-point CRC, membrane potential dye (AID 504840); type: functional
[7] = target: Melanin-concentrating hormone receptor 1 (Homo sapiens, UniProt Q99705); test: Late-stage fluorescence-based counterscreen for antagonists of the G-protein coupled receptor 7 (GPR7): cell-based dose response assay to identify antagonists of the melanin-concentrating hormone receptor 1 (MCHR1) Set 5.; type: functional
Sequence of Melanin-concentrating hormone receptor 1 (Q99705 whole entry): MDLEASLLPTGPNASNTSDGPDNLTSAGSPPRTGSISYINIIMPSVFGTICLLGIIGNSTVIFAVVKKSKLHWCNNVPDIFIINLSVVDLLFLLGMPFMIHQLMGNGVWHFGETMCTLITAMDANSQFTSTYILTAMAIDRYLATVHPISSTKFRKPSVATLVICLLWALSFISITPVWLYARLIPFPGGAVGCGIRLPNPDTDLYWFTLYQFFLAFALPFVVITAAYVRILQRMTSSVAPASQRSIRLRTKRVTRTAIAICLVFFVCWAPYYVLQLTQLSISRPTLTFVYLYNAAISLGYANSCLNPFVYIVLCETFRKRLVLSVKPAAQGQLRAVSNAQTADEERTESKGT

[8] = target: T3, Neuropeptides B/W receptor type 1 (Homo sapiens, UniProt P48145); test: GPR7 antagonist potency, late-stage follow-up, cell-based, fluorescence, dose response, set 5 (AID 588566); type: functional
T3 sequence (P48145 whole entry): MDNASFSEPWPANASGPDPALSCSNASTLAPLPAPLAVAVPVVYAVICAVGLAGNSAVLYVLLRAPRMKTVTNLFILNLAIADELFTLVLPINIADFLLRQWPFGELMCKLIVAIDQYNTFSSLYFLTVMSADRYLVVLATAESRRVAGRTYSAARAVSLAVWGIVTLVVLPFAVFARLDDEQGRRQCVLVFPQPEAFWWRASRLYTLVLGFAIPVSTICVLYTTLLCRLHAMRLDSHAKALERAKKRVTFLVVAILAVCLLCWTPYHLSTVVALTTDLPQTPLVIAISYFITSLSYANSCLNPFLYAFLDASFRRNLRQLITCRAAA

SMILES: Cc1c(CCOC(=O)CC23CC4CC(CC(C)(C4)C2)C3)sc[n+]1Cc1ccc([N+](=O)[O-])cc1
EC50 [1]: > 38 µM (not active)
EC50 [2]: 10.9 µM (active)
AC50 [3]: 15.6 µM (active)
EC50 [4]: > 150 µM (inactive)

IC50 [5]: 4.74 µM (active)
IC50 [6]: 8.13 µM (active)
SMILES: COc1ccc(C(=O)NCCCSC)cc1OC1CCN(C(C)C)CC1

IC50 [7]: > 20 µM (inactive)
IC50 [8]: 11.8 µM (inactive)
SMILES: CCOC(=O)C(C(N)=O)c1c(Cl)cnn(Cc2cccc3ccccc23)c1=O (stereo not drawn)

Source: ChEMBL document CHEMBL1201862, “PubChem BioAssay data set” (2004)
